The nature of series [1]: Acute toxicity (LD50, IV). The settings on record: mouse, in vivo, male ICR-strain mice, survivors at day-5, read-out: LD50 (50% lethal dose). As for the experimental part: An acute toxicity study was carried out with male ICR-strain mice. LD50 (50% lethal dose) was calculated on the basis of the number of survivors at day-5 after IV administration of the drugs.
In series [2] the test system is Candida albicans (strain C3). The experiment in a line: Experimental (mouse) candidiasis, survival ratio. Type of series: in vivo, Candida albicans (strain C3) in male ICR-strain mice. Particulars: 1 hr after infection, day-8, groups of 10 mice. As for the experimental part: Male ICR-strain mice, weighing 20-22 g, were used in groups of 10. A 0.2 ml cell suspension of Candida albicans (strain C3) was injected IV via the tail vein, inoculum size being 2.5×10^7 cells/mouse. The test drugs (0.2 ml) were administered IV via the tail vein once at 1 hr after the infection.
The therapeutic effect of the test drugs was expressed as the survival ratio at day-8 after infection.

SMILES strings stand for the structures.

A word on the LD50: it is the dose expected to kill half of the subjects tested. For `C[C@@H]1[C@H](O)[C@@H](C)/C=C/C=C/C=C/C=C/C=C/C=C/C=C/[C@H](O[C@@H]2O[C@H](C)[C@@H](O)[C@H](N)[C@@H]2O)C[C@@H]2O[C@](O)(C[C@@H](O)C[C@@H](O)[C@H](O)CC[C@@H](O)C[C@@H](O)CC(=O)O[C@H]1C)C[C@H](O)[C@H]2C(=O)O` [amphotericin B], in series [1], the LD50 at 120 h turned out to be 4.1 mg/kg. Also, the Survival ratio is 0% in series [2] (0.125 mg/kg IV once), 70% in series [2] (0.25 mg/kg IV once) and 100% in series [2] (0.5 mg/kg IV once).

For the origin of these results see patent publication US5023079A, “Heptaene V-28-3 antibiotic derivative” (Ajinomoto Co., Inc., priority 1987, dated 1991).
